For two compounds, IC50 results are on record in ChEMBL document CHEMBL1201862, “PubChem BioAssay data set” (2004).

Each structure is given as a SMILES string. The source made the active and inactive calls.

The target in experiment [1] is T1, Small ubiquitin-related modifier 1 (Homo sapiens, UniProt P63165). In words: inhibitors of SUMO1 peptide binding, dose response, biochemical, fluorescence polarization, uHTS hits (AID 624382). The format is functional. The note with it: read-out: IC50_Mean. Background: In fluorescence polarisation assays a small probe gives low polarisation when free and higher when bound to something large.
T1 sequence (P63165 whole entry): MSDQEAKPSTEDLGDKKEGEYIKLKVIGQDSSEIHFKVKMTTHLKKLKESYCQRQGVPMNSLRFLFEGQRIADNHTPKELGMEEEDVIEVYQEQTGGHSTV

The target of a further experiment is Genome polyprotein (Hepatitis C virus, UniProt Q2Q167). In words: HCV core protein dimerization inhibitors, dose response, biochemical, TR-FRET (AID 2159).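 Note: blocks dimerization of HCV core protein measured by TR-FRET between tagged core106 pairs.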 The arrangement: species or system Hepacivirus hominis. In general terms: TR-FRET usually uses a lanthanide donor and a delayed reading to cut background.
Sequence of Genome polyprotein (Q2Q167 whole entry): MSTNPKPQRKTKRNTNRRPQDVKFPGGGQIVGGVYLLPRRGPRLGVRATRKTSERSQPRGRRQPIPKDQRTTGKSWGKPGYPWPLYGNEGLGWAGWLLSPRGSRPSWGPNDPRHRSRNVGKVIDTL
A further experiment concerns the target Albumin (Bos taurus, UniProt P02769). The experiment is described as follows: Counterscreen for inhibitors of T-cell receptor (TCR)-CD3 interaction: Fluorescence-based biochemical high throughput dose response assay to identify inhibitors of T-cell receptor (TCR)-CD3 interaction using a TAMRA-labeled BSA probe. Format: functional.
In experiment [2] the target is T2, Voltage-gated N-type calcium channel alpha-1B subunit/Amyloid beta A4 precursor protein-binding family A member 1 (Homo sapiens, UniProt Q00975+Q02410). The experiment is described as follows: disruptors of Mint-PDZ/N-type channel peptide interaction – biochemical, HTRF, set 2, SAR follow-up (AID 434980). Format: functional.
T2 sequence (Q00975 whole entry): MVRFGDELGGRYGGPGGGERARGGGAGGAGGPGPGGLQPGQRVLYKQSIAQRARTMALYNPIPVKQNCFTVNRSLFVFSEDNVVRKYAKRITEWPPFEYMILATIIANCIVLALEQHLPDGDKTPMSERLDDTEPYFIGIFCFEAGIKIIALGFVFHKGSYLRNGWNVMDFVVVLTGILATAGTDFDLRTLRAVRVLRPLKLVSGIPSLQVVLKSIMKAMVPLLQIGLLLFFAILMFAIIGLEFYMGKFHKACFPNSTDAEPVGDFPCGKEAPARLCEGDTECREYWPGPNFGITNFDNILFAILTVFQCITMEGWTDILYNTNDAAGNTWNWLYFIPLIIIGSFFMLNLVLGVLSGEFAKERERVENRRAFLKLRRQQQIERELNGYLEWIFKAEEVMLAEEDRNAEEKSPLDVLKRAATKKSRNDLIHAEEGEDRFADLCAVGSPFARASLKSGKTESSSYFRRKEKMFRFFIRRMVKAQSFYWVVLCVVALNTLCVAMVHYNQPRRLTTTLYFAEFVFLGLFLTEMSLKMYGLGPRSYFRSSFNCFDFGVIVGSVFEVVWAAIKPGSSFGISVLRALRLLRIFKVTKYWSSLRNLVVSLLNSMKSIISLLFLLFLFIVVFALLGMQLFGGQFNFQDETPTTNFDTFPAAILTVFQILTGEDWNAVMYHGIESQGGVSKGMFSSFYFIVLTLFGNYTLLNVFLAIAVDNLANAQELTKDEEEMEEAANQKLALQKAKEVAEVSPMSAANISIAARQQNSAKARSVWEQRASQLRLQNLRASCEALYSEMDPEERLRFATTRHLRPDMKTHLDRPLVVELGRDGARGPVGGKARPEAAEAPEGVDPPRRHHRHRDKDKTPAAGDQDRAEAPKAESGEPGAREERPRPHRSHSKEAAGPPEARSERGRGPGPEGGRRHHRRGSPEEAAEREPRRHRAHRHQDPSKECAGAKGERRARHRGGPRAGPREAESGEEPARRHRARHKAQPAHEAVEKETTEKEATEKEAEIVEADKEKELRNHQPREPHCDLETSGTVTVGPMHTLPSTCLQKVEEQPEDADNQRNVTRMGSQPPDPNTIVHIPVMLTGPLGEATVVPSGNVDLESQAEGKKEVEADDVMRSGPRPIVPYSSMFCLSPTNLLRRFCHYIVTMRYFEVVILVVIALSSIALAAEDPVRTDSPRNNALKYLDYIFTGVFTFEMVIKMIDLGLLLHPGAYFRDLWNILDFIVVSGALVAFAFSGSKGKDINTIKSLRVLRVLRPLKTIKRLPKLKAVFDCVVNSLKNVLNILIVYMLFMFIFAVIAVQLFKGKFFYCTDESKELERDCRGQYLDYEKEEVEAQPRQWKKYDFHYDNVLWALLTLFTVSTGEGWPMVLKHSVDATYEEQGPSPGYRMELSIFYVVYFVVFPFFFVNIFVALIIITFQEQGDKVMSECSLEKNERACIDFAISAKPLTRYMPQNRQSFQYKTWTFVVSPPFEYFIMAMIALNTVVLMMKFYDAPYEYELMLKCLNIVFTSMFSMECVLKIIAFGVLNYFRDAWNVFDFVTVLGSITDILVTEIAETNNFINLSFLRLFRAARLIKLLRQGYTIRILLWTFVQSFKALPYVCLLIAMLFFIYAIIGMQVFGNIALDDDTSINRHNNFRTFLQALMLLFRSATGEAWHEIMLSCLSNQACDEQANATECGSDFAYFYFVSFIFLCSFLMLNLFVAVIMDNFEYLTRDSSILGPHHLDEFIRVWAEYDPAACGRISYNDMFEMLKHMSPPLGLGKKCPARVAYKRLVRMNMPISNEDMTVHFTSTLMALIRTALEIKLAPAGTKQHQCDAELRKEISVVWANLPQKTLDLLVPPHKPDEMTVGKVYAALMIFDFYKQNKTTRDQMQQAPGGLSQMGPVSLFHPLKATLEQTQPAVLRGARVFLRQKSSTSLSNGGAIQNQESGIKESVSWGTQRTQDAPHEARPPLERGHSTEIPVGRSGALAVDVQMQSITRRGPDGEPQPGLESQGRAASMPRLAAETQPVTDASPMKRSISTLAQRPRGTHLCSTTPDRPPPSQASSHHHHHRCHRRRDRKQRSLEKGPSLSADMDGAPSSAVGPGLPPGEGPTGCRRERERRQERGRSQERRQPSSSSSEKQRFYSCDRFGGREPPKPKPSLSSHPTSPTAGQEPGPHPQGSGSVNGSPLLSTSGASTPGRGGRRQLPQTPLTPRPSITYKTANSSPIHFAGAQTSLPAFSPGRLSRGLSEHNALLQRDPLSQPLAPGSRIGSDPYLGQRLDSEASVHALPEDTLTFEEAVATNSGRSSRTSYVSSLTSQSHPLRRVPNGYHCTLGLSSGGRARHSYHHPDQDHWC
T2 sequence (Q02410 whole entry): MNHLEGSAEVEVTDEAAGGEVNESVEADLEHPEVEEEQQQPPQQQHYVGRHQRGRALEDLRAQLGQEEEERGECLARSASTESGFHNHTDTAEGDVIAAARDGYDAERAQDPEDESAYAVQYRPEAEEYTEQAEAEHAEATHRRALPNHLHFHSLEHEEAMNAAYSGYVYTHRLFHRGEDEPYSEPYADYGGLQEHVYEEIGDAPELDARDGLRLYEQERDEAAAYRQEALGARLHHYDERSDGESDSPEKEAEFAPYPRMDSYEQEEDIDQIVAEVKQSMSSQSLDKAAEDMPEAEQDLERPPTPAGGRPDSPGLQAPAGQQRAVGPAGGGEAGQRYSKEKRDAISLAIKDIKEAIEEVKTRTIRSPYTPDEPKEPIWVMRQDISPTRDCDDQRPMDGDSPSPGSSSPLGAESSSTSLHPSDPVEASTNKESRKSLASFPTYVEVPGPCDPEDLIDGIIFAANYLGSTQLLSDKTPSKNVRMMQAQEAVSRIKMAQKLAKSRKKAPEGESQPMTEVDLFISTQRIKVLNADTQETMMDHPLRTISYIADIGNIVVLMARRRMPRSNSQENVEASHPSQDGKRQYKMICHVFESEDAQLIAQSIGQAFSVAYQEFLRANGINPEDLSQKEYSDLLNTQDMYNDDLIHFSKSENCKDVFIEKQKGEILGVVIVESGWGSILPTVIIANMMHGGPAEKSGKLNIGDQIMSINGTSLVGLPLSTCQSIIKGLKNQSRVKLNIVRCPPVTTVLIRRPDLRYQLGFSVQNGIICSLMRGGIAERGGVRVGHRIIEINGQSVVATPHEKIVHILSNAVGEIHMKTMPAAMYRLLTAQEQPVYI
Experiment [3] deals with T2, Voltage-gated N-type calcium channel alpha-1B subunit/Amyloid beta A4 precursor protein-binding family A member 1. Format: protein assay.
For experiment [4] the target is unchanged. In words: disruptors of Mint-PDZ/N-type channel peptide interaction – biochemical, HTRF, SAR follow-up (AID 2489). Format: functional.
Another experiment addresses SUMO E1/E2 (Homo sapiens, UniProt P63279+Q9UBE0+Q9UBT2). The experiment is described as follows: SAR analysis of SUMOylation using HTRF in an in-Vitro dose response assay. [Related pubchem assays (depositor defined):AID2006, AID2011, AID2018, AID2069, AID2658]. Format: functional.
Experiment [5] concerns the target T2, Voltage-gated N-type calcium channel alpha-1B subunit/Amyloid beta A4 precursor protein-binding family A member 1. The format is protein assay. The source holds these as a separate data set.
In experiment [6] the target is Induced myeloid leukemia cell differentiation protein Mcl-1 (Homo sapiens, UniProt Q07820). The format is functional.
Sequence of Induced myeloid leukemia cell differentiation protein Mcl-1 (Q07820 whole entry): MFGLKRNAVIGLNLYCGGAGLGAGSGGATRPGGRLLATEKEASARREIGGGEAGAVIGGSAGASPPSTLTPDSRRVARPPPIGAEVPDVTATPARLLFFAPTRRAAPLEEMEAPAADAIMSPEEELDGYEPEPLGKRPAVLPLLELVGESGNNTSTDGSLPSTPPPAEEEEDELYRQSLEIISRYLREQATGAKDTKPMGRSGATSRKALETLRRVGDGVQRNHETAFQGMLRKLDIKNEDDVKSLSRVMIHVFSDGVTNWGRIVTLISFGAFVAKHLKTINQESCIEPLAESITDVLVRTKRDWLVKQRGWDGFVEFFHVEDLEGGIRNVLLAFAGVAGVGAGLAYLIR
For experiment [7], the target named is T1, Small ubiquitin-related modifier 1. In words: inhibitors of SUMO1 partner interactions, dose response, biochemical, FRET (AID 624383). The note with it: read-out: IC50_Mean. The format is functional.
Experiment [8] concerns the target G-protein coupled receptor 35 (Homo sapiens, UniProt Q9HC97). In words: GPR35 antagonists blocking zaprinast-driven arrestin recruitment, primary screen, imaging, U2OS, beta-arrestin-GFP, zaprinast agonist (AID 2058).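 Note: antagonist potency meaning inhibition of agonist-induced arrestin redistribution.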 The format is functional.

Sequence of G-protein coupled receptor 35 (Q9HC97 whole entry): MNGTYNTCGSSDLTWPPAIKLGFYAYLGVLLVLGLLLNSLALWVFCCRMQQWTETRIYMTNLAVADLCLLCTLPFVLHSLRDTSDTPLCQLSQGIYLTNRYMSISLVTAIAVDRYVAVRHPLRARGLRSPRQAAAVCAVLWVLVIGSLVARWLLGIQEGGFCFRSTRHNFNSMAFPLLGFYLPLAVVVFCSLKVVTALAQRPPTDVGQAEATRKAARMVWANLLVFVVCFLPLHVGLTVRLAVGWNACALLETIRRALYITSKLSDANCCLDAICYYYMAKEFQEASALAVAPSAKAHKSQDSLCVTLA
Sequence of Albumin (P02769 whole entry): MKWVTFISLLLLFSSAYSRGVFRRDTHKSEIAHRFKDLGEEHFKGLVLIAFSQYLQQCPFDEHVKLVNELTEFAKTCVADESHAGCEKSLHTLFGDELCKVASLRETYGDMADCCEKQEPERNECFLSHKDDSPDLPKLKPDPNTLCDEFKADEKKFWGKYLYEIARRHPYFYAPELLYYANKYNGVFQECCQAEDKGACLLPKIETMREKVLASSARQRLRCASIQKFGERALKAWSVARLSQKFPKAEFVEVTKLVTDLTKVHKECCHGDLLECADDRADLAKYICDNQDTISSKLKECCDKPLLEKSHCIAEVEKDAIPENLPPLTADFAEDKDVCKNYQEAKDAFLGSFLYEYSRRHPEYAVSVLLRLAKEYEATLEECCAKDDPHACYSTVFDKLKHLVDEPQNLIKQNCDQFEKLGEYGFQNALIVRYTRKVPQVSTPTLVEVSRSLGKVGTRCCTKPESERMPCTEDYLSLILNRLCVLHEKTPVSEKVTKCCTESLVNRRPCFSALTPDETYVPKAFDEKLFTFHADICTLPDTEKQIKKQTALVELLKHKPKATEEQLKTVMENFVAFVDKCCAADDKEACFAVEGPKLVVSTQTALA

On to `CN(C(=O)COC(=O)c1cc(-c2ccco2)nc2ccccc12)C1CCS(=O)(=O)C1` (stereo unspecified), for which the IC50 in [1] is > 66.6 µM (inactive); on Genome polyprotein it was > 49.8 µM (not active); on Albumin, > 94.1 µM (inactive); in [2], 3.26 µM (active); in experiment [3] it was 2.15 µM (active); in experiment [4], 4.74 µM (active). For the same compound, the IC50 on SUMO E1/E2 was 2.66 µM (active); in experiment [5], 28.8 µM (active); in experiment [6], 1.59 µM (active); in experiment [7], 4.99 µM (active).

`Cc1nnc(NC(=O)c2sc3nc(-c4cccs4)cc(C(F)(F)F)c3c2N)s1`: in [8], the IC50 is 0.61 µM (active).
